Measured values taken from patent US20200069648A1, “HALOALLYLAMINE PYRAZOLE DERIVATIVE INHIBITORS OF LYSYL OXIDASES AND USES THEREOF” (Pharmaxis Ltd., priority 2017, published 2020).
Structures can show the parent of a compound that is named as a salt.

| melting point [°C] | SMILES |
| --- | --- |
| 164 to 166 | Cc1nn(C/C(F)=C/CN)c(C(=O)O)c1Cc1ccc(S(=O)(=O)N(C)C)cc1 (as salt: hydrochloride) [Compound 30, (Z)-1-(4-amino-2-fluorobut-2-enyl)-4-(4-(N,N-dimethylsulfamoyl)benzyl)-3-methyl-1H-pyrazole-5-carboxylic acid hydrochloride] |
| 80 to 86 | CNS(=O)(=O)c1ccc(Cn2nc(C)c(C/C(F)=C/CN)c2C)c(Cl)c1 (as salt: hydrochloride) [Compound 20, (Z)-4-((4-(4-amino-2-fluorobut-2-en-1-yl)-3,5-dimethyl-1H-pyrazol-1-yl)methyl)-3-chloro-N-methylbenzenesulfonamide hydrochloride] |
| 100 to 103 | CNS(=O)(=O)c1cc(F)c(Cn2nc(C)c(C/C(F)=C/CN)c2C)cc1F (as salt: hydrochloride) [Compound 26, (Z)-4-((4-(4-amino-2-fluorobut-2-en-1-yl)-3,5-dimethyl-1H-pyrazol-1-yl)methyl)-2,5-difluoro-N-methylbenzenesulfonamide hydrochloride] |
| 171 to 172 | CNS(=O)(=O)c1ccc(Cn2nc(C)c(C/C(F)=C/CN)c2C)c(C(F)(F)F)c1 (as salt: hydrochloride) [Compound 23, (Z)-4-((4-(4-amino-2-fluorobut-2-en-1-yl)-3,5-dimethyl-1H-pyrazol-1-yl)methyl)-N-methyl-3-(trifluoromethyl)benzenesulfonamide hydrochloride] |
| 157 to 159 | CCOC(=O)c1c(Cc2ccc(S(=O)(=O)N(C)C)cc2)c(C)nn1C/C(F)=C/CN (as salt: hydrochloride) [Compound 27, (Z)-ethyl 1-(4-amino-2-fluorobut-2-enyl)-4-(4-(N,N-dimethylsulfamoyl)benzyl)-3-methyl-1H-pyrazole-5-carboxylate hydrochloride] |
| 77 to 80 | Cc1nn(C/C(F)=C/CN)c(C(=O)N(C)C)c1Cc1ccc(S(=O)(=O)N(C)C)cc1 (as salt: hydrochloride) [Compound 29, (Z)-1-(4-amino-2-fluorobut-2-enyl)-4-(4-(N,N-dimethylsulfamoyl)benzyl)-N,N,3-trimethyl-1H-pyrazole-5-carboxamide hydrochloride] |
| 262 to 264 | Cc1c(Cc2ccc(S(=O)(=O)N(C)C)cc2)c(C(=O)O)nn1C/C(F)=C/CN (as salt: hydrochloride) [Compound 31, (Z)-1-(4-amino-2-fluorobut-2-enyl)-4-(4-(N,N-dimethylsulfamoyl)benzyl)-5-methyl-1H-pyrazole-3-carboxylic acid hydrochloride] |
| 92 to 94 | Cc1nn(Cc2ccc(S(C)(=O)=O)c(Cl)c2)c(C)c1C/C(F)=C/CN (as salt: hydrochloride) [Compound 24, (Z)-4-(1-(3-chloro-4-(methylsulfonyl)benzyl)-3,5-dimethyl-1H-pyrazol-4-yl)-3-fluorobut-2-en-1-amine hydrochloride] |

The next lines start with the compound.

| SMILES | melting point [°C] |
| --- | --- |
| Cc1nn(C/C(F)=C/CN)c(C)c1Cc1ccc(S(C)(=O)=O)cc1 (as salt: hydrochloride) [Compound 4, (Z)-4-(3,5-dimethyl-4-(4-(methylsulfonyl)benzyl)-1H-pyrazol-1-yl)-3-fluorobut-2-en-1-amine hydrochloride] | 127 to 137 |
| Cc1nn(C/C(F)=C/CN)c(C)c1Cc1ccc(S(=O)(=O)N(C)C)cc1Cl (as salt: hydrochloride) [Compound 3, (Z)-4-((1-(4-amino-2-fluorobut-2-en-1-yl)-3,5-dimethyl-1H-pyrazol-4-yl)methyl)-3-chloro-N,N-dimethylbenzenesulfonamide hydrochloride] | 185 to 187 |
| Cc1nn(C/C(F)=C/CN)c(C)c1Cc1ccc(S(=O)(=O)N2CCCC2)cc1 (as salt: hydrochloride) [Compound 7, (Z)-4-(3,5-dimethyl-4-(4-(pyrrolidin-1-ylsulfonyl)benzyl)-1H-pyrazol-1-yl)-3-fluorobut-2-en-1-amine hydrochloride] | 181 to 184 |
| Cc1nn(C/C(F)=C/CN)c(C)c1Cc1ccc(S(=O)(=O)N(C)C)c2ccccc12 (as salt: hydrochloride) [Compound 9, (Z)-4-((1-(4-amino-2-fluorobut-2-en-1-yl)-3,5-dimethyl-1H-pyrazol-4-yl)methyl)-N,N-dimethyl naphthalene-1-sulfonamide hydrochloride] | 70 to 80 |
| Cc1nn(C/C(F)=C/CN)c(C)c1Cc1ccc(S(=O)(=O)N2CCOCC2)cc1 (as salt: hydrochloride) [Compound 6, (Z)-4-(3,5-dimethyl-4-(4-(morpholinosulfonyl)benzyl)-1H-pyrazol-1-yl)-3-fluorobut-2-en-1-amine hydrochloride] | 190 to 197 |
| Cc1nn(Cc2ccc(S(=O)(=O)N(C)C)cc2)c(C)c1C/C(F)=C/CN (as salt: hydrochloride) [Compound 10, (Z)-4-((4-(4-amino-2-fluorobut-2-en-1-yl)-3,5-dimethyl-1H-pyrazol-1-yl)methyl)-N,N-dimethylbenzenesulfonamide hydrochloride] | 180 to 185 |
| Cc1nn(C/C(F)=C/CN)c(C)c1Cc1ccc(S(=O)(=O)N(C)C)cc1 (as salt: hydrochloride) [Compound 2, (Z)-4-((1-(4-amino-2-fluorobut-2-en-1-yl)-3,5-dimethyl-1H-pyrazol-4-yl)methyl)-N,N-dimethylbenzenesulfonamide hydrochloride] | 209 to 211 |
| Cc1nn(C/C(F)=C/CN)c(C)c1Cc1ccc(C(=O)N(C)C)cc1 (as salt: hydrochloride) [Compound 14, (Z)-4-((1-(4-amino-2-fluorobut-2-en-1-yl)-3,5-dimethyl-1H-pyrazol-4-yl)methyl)-N,N-dimethylbenzamide hydrochloride] | 75 to 82 |
| Cc1nn(C/C(F)=C/CN)c(C)c1Cc1ccc(S(C)(=O)=O)c(Cl)c1 (as salt: hydrochloride) [Compound 16, (Z)-4-(4-(3-chloro-4-(methylsulfonyl)benzyl)-3,5-dimethyl-1H-pyrazol-1-yl)-3-fluorobut-2-en-1-amine hydrochloride] | 105 to 115 |
